From patent publication US20230174538A1, “Tricyclic heterocycles” (Merck Patent GmbH, priority 2020, published 2023)

Each compound was assayed on YAP-TEAD interaction (assay: SK-HEP-1 reporter assay (8xTEAD responsive elements driving NanoLuc luciferase)). Settings: Homo sapiens, SK-HEP1, SK-HEP-1 reporter assay.
Type: cell-based
Protocol: To identify inhibitors of YAP-TEAD interaction, 8×TEAD responsive elements driving the NanoLuc® luciferase gene were stably integrated into SK-HEP-1 cells (ECACC #: 91091816).
For the assay, cells were treated in duplicates with the test compounds in a 10-point dose, with the top concentration starting at 30 μM (final concentration in assay). After a 24 hour incubation at 37° C., 95% rH, and 5% CO2, a luciferase substrate/lysis reagent mix (NanoGlo™, Promega) was added to the cells, allowing the quantification of cellular luciferase activity.
Cell Media: The cells were cultured in the following media: MEM, +10% FBS, +1× GlutaMAX, +1 mM Sodium-Pyruvate, +100 μM Non-essential amino acids, +0.1 mg/ml Hygromycin. The media used for the assay was: MEM (w/o Phenol Red), +10% FBS, +1× GlutaMAX, +1 mM Sodium-Pyruvate, +100 μM Non-essential amino acids, +0.5% Pen/Strep
Reagents: The reagents used are listed below:
Cell culture: The cells were examined using an inverted microscope to check for health and cell density. To dissociate adherent cells, the monolayer of cells was washed once with pre-warmed PBS. After removing the PBS, 3 ml pre-warmed Accutase® was added to a F75 flask, dispersed evenly and the flask was allowed to sit in incubator for ˜4-5 minutes.
When a single cell suspension was obtained, 7 ml of prewarmed growth media was added and resuspended with the cells. The cell suspension was transferred to a sterile 15 ml conical centrifuge tube, and spun for 5 min at 300×g, RT. The supernatant was discarded and the pellet was resuspended in 10 ml of pre-warmed growth media.
The total cell count was determined, and 20 μl of the desired cell number was added to each well of a 384 well plate using a Multidrop Combi. The plates were then incubated for 24 hours at 37° C., 95% rH, and 5% CO2.
Compound treatment: 24 hours after seeding, the cells were treated with compounds.
A 1:333 dilution of compounds, diluted in DMSO, was made to get a final concentration of 0.3% DMSO per well. To transfer the compounds to the assay plate, 120 nl was shot from Labcyte low dead volume plates to the cell plates containing 20 μl media/well with the ECHO 555 liquid handling system.
After treatment, the cells were fed with 20 μl fresh pre-warmed assay media using a Multidrop combi.
The assay plates were then incubated for another 24 h at 37° C., 95% rH, and 5% CO2.
Luciferase readout: 24 h after treatment, the plates were taken out of the incubator and were allowed to equilibrate to RT. 30 μl of NanoGlo® reagent was added to the plates in the dark. Plates were shaken for 20 min on a Teleshake (˜1500 rpm) in the dark. The luminescence was then measured using an EnVision microplate reader. The IC50 values were generated using Genedata Screener®.
Compound Cn1cc2c3cc(C(=O)NC4CCCc5c4cnn5C)ccc3n(-c3ccc(C(F)(F)F)cc3)c2n1 (stereo not drawn) [Example B37, 2-methyl-N-(1-methyl-4,5,6,7-tetrahydro-1H-indazol-4-yl)-8-[4-(trifluoromethyl)phenyl]-2H,8H-pyrazolo[3,4-b]indole-5-carboxamide] has an IC50 of 100 to 10000 nM.
CC1CN(C(=O)c2ccc3c(c2)c2cn(C)nc2n3-c2ccc(C(F)(F)F)cc2)CC(CCO)O1 (stereo not drawn) [Example B33, 2-(6-methyl-4-{2-methyl-8-[4-(trifluoromethyl)phenyl]-2H,8H-pyrazolo[3,4-b]indole-5-carbonyl}morpholin-2-yl)ethan-1-ol] was tested, and the IC50 was 100 to 10000 nM.
Work on COc1cc(C(C)NC(=O)c2ccc3c(c2)c2cn(C)nc2n3-c2ccc(C(F)(F)F)cc2)sn1 (stereo not drawn) [Example B83, N-[1-(3-methoxy-1,2-thiazol-5-yl)ethyl]-2-methyl-8-[4-(trifluoromethyl)phenyl]-2H,8H-pyrazolo[3,4-b]indole-5-carboxamide] yielded an IC50 of 100 to 10000 nM.
Compound Cn1cc2c3cc(C(=O)NCc4cc5ncccc5[nH]4)ccc3n(-c3ccc(C(F)(F)F)cc3)c2n1 [Example B6, 2-methyl-N-({1H-pyrrolo[3,2-b]pyridin-2-yl}methyl)-8-[4-(trifluoromethyl)phenyl]-2H,8H-pyrazolo[3,4-b]indole-5-carboxamide] has an IC50 of 100 to 10000 nM.
CN1CCN(C(=O)c2ccc3c(c2)c2cn(C)nc2n3-c2ccc(C(F)(F)F)cc2)CC1CO (stereo not drawn) [Example B65, (1-methyl-4-{2-methyl-8-[4-(trifluoromethyl)phenyl]-2H,8H-pyrazolo[3,4-b]indole-5-carbonyl}piperazin-2-yl)methanol] showed an IC50 of over 10000 nM.
Work on Cn1cc2c3cc(C(=O)NCCCc4cc[nH]n4)ccc3n(-c3ccc(C(F)(F)F)cc3)c2n1 [B142^] yielded an IC50 of 100 to 10000 nM.
With Cn1cc2c3cc(C(=O)NC4(c5ncon5)CCC4)ccc3n(-c3ccc(C(F)(F)F)cc3)c2n1 [B117^] the IC50 was 10 to 100 nM.
Cn1cc2c3cc(C(=O)NC4(c5cncn5C)CC4)ccc3n(-c3ccc(C(F)(F)F)cc3)c2n1 [Example B70, 2-methyl-N-[1-(1-methyl-1H-imidazol-5-yl)cyclopropyl]-8-[4-(trifluoromethyl)phenyl]-2H,8H-pyrazolo[3,4-b]indole-5-carboxamide] showed an IC50 of 100 to 10000 nM.
Compound CN(Cc1conc1C1CC1)C(=O)c1ccc2c(c1)c1cn(C)nc1n2-c1ccc(C(F)(F)F)cc1 [Example B88, N-[(3-cyclopropyl-1,2-oxazol-4-yl)methyl]-N,2-dimethyl-8-[4-(trifluoromethyl)phenyl]-2H,8H-pyrazolo[3,4-b]indole-5-carboxamide] has an IC50 of over 10000 nM.
For Cc1cnn(CC(C)NC(=O)c2ccc3c(c2)c2cn(C)nc2n3-c2ccc(C(F)(F)F)cc2)c1 (stereo not drawn) [Example B66, 2-methyl-N-[1-(4-methyl-1H-pyrazol-1-yl)propan-2-yl]-8-[4-(trifluoromethyl)phenyl]-2H,8H-pyrazolo[3,4-b]indole-5-carboxamide], the IC50 was 100 to 10000 nM.
For CCC(NC(=O)c1ccc2c(c1)c1cn(C)nc1n2-c1ccc(C(F)(F)F)cc1)c1c(C)noc1C (stereo not drawn) [Example B71, N-[1-(3,5-dimethyl-1,2-oxazol-4-yl)propyl]-2-methyl-8-[4-(trifluoromethyl)phenyl]-2H,8H-pyrazolo[3,4-b]indole-5-carboxamide], the IC50 was 10 to 100 nM.
With CN(Cc1noc(C2CC2)n1)C(=O)c1ccc2c(c1)c1cn(C)nc1n2-c1ccc(C(F)(F)F)cc1 [B137^] the IC50 was over 10000 nM.
Work on Cn1cc2c3cc(C(=O)NC4(C5CCCO5)CCC4)ccc3n(-c3ccc(C(F)(F)F)cc3)c2n1 (stereo not drawn) [Example B81, 2-methyl-N-[1-(oxolan-2-yl)cyclobutyl]-8-[4-(trifluoromethyl)phenyl]-2H,8H-pyrazolo[3,4-b]indole-5-carboxamide] yielded an IC50 of 100 to 10000 nM.
CC(NC(=O)c1ccc2c(c1)c1cn(C)nc1n2-c1ccc(C(F)(F)F)cc1)c1cc[nH]n1 (stereo not drawn) [Example B39, 2-methyl-N-[1-(lH-pyrazol-5-yl)ethyl]-8-[4-(trifluoromethyl)phenyl]-2H,8H-pyrazolo[3,4-b]indole-5-carboxamide] showed an IC50 of 10 to 100 nM.
Cn1cc2c3cc(C(=O)NC(CCO)c4cncs4)ccc3n(-c3ccc(C(F)(F)F)cc3)c2n1 (stereo not drawn) [Example B9, N-[3-hydroxy-1-(1,3-thiazol-5-yl)propyl]-2-methyl-8-[4-(trifluoromethyl)phenyl]-2H,8H-pyrazolo[3,4-b]indole-5-carboxamide] gave an IC50 of 10 to 100 nM.
In the case of Cc1ccnn1CC(C)CNC(=O)c1ccc2c(c1)c1cn(C)nc1n2-c1ccc(C(F)(F)F)cc1 (stereo not drawn) [B106^], the IC50 is reported as over 10000 nM.
For Cn1cc2c3cc(C(=O)NC(c4cccnc4)C4CC4)ccc3n(-c3ccc(C(F)(F)F)cc3)c2n1 (stereo not drawn) [Example B55, N-[cyclopropyl(pyridin-3-yl)methyl]-2-methyl-8-[4-(trifluoromethyl)phenyl]-2H,8H-pyrazolo[3,4-b]indole-5-carboxamide], the IC50 was 10 to 100 nM.
Cn1cc2c3cc(C(=O)NC4CCc5cn[nH]c5C4)ccc3n(-c3ccc(C(F)(F)F)cc3)c2n1 (stereo not drawn) [Example B25, 2-methyl-N-(4,5,6,7-tetrahydro-1H-indazol-6-yl)-8-[4-(trifluoromethyl)phenyl]-2H,8H-pyrazolo[3,4-b]indole-5-carboxamide] showed an IC50 of 100 to 10000 nM.
Cn1cc2c3cc(C(=O)NCCc4ocnc4CO)ccc3n(-c3ccc(C(F)(F)F)cc3)c2n1 [Example B67, N-{2-[4-(hydroxymethyl)-1,3-oxazol-5-yl]ethyl}-2-methyl-8-[4-(trifluoromethyl)phenyl]-2H,8H-pyrazolo[3,4-b]indole-5-carboxamide] showed an IC50 of 10 to 100 nM.
Cn1cc2c3cc(C(=O)NCc4ncn5c4CCCC5)ccc3n(-c3ccc(C(F)(F)F)cc3)c2n1 [Example B20, N-({5H,6H,7H,8H-imidazo[1,5-a]pyridin-1-yl}methyl)-2-methyl-8-[4-(trifluoromethyl)phenyl]-2H,8H-pyrazolo[3,4-b]indole-5-carboxamide] showed an IC50 of over 10000 nM.
Cn1cc2c3cc(C(=O)NCc4ccc(F)c(CO)c4)ccc3n(-c3ccc(C(F)(F)F)cc3)c2n1 [Example B19, N-{[4-fluoro-3-(hydroxymethyl)-phenyl]methyl}-2-methyl-8-[4-(trifluoromethyl)phenyl]-2H,8H-pyrazolo[3,4-b]indole-5-carboxamide] was tested, and the IC50 was 1 to 10 nM.
Cc1cc(CC(C)NC(=O)c2ccc3c(c2)c2cn(C)nc2n3-c2ccc(C(F)(F)F)cc2)n[nH]1 (stereo not drawn) [B101^] gave an IC50 of over 10000 nM.
Work on Cn1cc2c3cc(C(=O)NCCc4c[nH]nn4)ccc3n(-c3ccc(C(F)(F)F)cc3)c2n1 [Example B11, 2-methyl-N-[2-(1H-1,2,3-triazol-4-yl)ethyl]-8-[4-(trifluoromethyl)phenyl]-2H,8H-pyrazolo[3,4-b]indole-5-carboxamide] yielded an IC50 of 10 to 100 nM.
Compound Cc1[nH]ncc1CCCNC(=O)c1ccc2c(c1)c1cn(C)nc1n2-c1ccc(C(F)(F)F)cc1 [B132^] has an IC50 of 100 to 10000 nM.
CC(NC(=O)c1ccc2c(c1)c1cn(C)nc1n2-c1ccc(C(F)(F)F)cc1)c1c[nH]cn1 (stereo not drawn) [Example B5, N-[1-(1H-imidazol-4-yl)ethyl]-2-methyl-8-[4-(trifluoromethyl)phenyl]-2H,8H-pyrazolo[3,4-b]indole-5-carboxamide] gave an IC50 of 100 to 10000 nM.
With Cn1cc2c3cc(C(=O)NCCc4nncn4C4CC4)ccc3n(-c3ccc(C(F)(F)F)cc3)c2n1 [B110^] the IC50 was over 10000 nM.
For Cn1cc2c3cc(C(=O)N[C@@H]4C[C@H](O)c5ccccc54)ccc3n(-c3ccc(C(F)(F)F)cc3)c2n1 (relative stereo) [Example B1, N-[(1R,3S)-3-hydroxy-2,3-dihydro-1H-inden-1-yl]-2-methyl-8-[4-(trifluoromethyl)phenyl]-2H,8H-pyrazolo[3,4-b]indole-5-carboxamide], the IC50 was 100 to 10000 nM.
Cc1noc(CC2(NC(=O)c3ccc4c(c3)c3cn(C)nc3n4-c3ccc(C(F)(F)F)cc3)CC2)n1 [Example B77, 2-methyl-N-{1-[(3-methyl-1,2,4-oxadiazol-5-yl)methyl]cyclopropyl}-8-[4-(trifluoromethyl)phenyl]-2H,8H-pyrazolo[3,4-b]indole-5-carboxamide] gave an IC50 of over 10000 nM.
With Cn1cc2c3cc(C(=O)NCc4c(C5CC5)cnn4C)ccc3n(-c3ccc(C(F)(F)F)cc3)c2n1 [B102^] the IC50 was 10 to 100 nM.
With Cn1cc2c3cc(C(=O)O)ccc3n(CC3CCCCC3)c2n1 [Example 11, 8-(cyclohexylmethyl)-2-methyl-2H,8H-pyrazolo[3,4-b]indole-5-carboxylic acid] the IC50 was 100 to 10000 nM.
